In article PMC6709486, “Safety, Tolerability, Pharmacokinetics, and Drug Interaction Potential of SPR741, an Intravenous Potentiator, after Single and Multiple Ascending Doses and When Combined with β-Lactam Antibiotics in Healthy Subjects” (Antimicrobial Agents and Chemotherapy, 2019):
Peptide text beside a SMILES is read from it.

Tests used:
[1] = MAD phase safety and tolerability; assay type: in vivo, human
Excerpt: The SAD/MAD study was a phase 1, double-blind, placebo-controlled, multicohort trial. Part 1 used a SAD design according to which subjects received a single i.v. dose of SPR741. Part 2 used a MAD design in which subjects received multiple daily i.v. doses of SPR741 over a period of 14 days. The objective was to assess the safety/tolerability and PK of single and multiple ascending doses of SPR741.
In the SAD phase, healthy volunteers were screened within 28 days prior to dosing. Subjects were admitted to the clinical facility on day −1 for up to 3 days. A single dose of SPR741 (or placebo) was administered on day 1. Following completion of all safety assessments and sampling for PK analyses, subjects were discharged on day 2. A follow-up visit occurred 5 to 7 days after day 1 dosing. In the MAD phase, all subjects were admitted to the clinical facility on day −1. Dosing commenced on the morning of day 1. Three doses were administered daily at approximately 8 (±0.5)-h intervals for a total of 14 consecutive days. The last dose was administered on the morning of day 14. Blood and urine samples were collected for assessment of PK parameters. Subjects were discharged on day 16 following completion of all PK sample collection and safety assessments, and a follow-up visit occurred 5 to 7 days after the last dose.
The MAD phase of the study began after safety and tolerability were confirmed in cohort 5, and the appropriate dose level was established. Two subjects received placebo, and six subjects received SPR741 doses of 50, 150, 400 or 600 mg q8h for 14 days. In the first cohort of the MAD phase (50 mg q8h), two subjects (sentinels) began dosing with SPR741 or placebo 72 h prior to dosing of the remaining subjects in this cohort. The remaining six subjects were dosed only after no safety concerns were identified by the Safety Monitoring Group at 72 h. After each MAD dose cohort had completed administration of study drug and all evaluations, the Safety Monitoring Group reviewed blinded cumulative safety data (including the day 19 to 21 follow-up data) to confirm the safety and tolerability of study drug.
For both studies, safety assessments included clinical laboratory testing (hematology, coagulation, serum chemistry, renal chemistry, and urinalysis), vital signs (blood pressure, heart rate, body temperature, and respiratory rate), physical examination, and triplicate 12-lead ECGs. […] Adverse events were recorded at each study visit.

[2] = design: species or system human; settings: in vivo
Excerpt: The SAD/MAD study was a phase 1, double-blind, placebo-controlled, multicohort trial. Part 1 used a SAD design according to which subjects received a single i.v. dose of SPR741. Part 2 used a MAD design in which subjects received multiple daily i.v. doses of SPR741 over a period of 14 days. The objective was to assess the safety/tolerability and PK of single and multiple ascending doses of SPR741. In the SAD phase, healthy volunteers were screened within 28 days prior to dosing. Subjects were admitted to the clinical facility on day −1 for up to 3 days. A single dose of SPR741 (or placebo) was administered on day 1. Following completion of all safety assessments and sampling for PK analyses, subjects were discharged on day 2. A follow-up visit occurred 5 to 7 days after day 1 dosing. In the MAD phase, all subjects were admitted to the clinical facility on day −1. Dosing commenced on the morning of day 1. Three doses were administered daily at approximately 8 (±0.5)-h intervals for a total of 14 consecutive days. The last dose was administered on the morning of day 14. Blood and urine samples were collected for assessment of PK parameters. Subjects were discharged on day 16 following completion of all PK sample collection and safety assessments, and a follow-up visit occurred 5 to 7 days after the last dose. In the SAD phase, subjects were randomized to one of eight cohorts that received doses of 5, 15, 50, 100, 200, 400, 600 or 800 mg of SPR741. Within each cohort, two subjects received placebo, and six received SPR741. In cohort 1, two subjects (sentinels) were dosed with SPR741 or placebo 48 h prior to dosing of the remaining subjects. The remaining six subjects were dosed only after no safety concerns were identified in the sentinel subjects. After each dose cohort had completed administration of study drug and evaluation, a Safety Monitoring Group reviewed blinded cumulative safety data (including day 5 to day 7 follow-up data) to confirm the safety and tolerability of SPR741. For both studies, safety assessments included clinical laboratory testing (hematology, coagulation, serum chemistry, renal chemistry, and urinalysis), vital signs (blood pressure, heart rate, body temperature, and respiratory rate), physical examination, and triplicate 12-lead ECGs. […] Adverse events were recorded at each study visit.

SMILES: CC(=O)N[C@H](C(=O)N[C@H](CO)C(=O)N[C@H]1CCNC(=O)[C@H]([C@@H](C)O)NC(=O)[C@H](CCN)NC(=O)[C@H](CCN)NC(=O)[C@H](CC(C)C)NC(=O)[C@@H](Cc2ccccc2)NC(=O)[C@H](CCN)NC1=O)[C@@H](C)O [SPR741] (HELM PEPTIDE1{[ac].T.[dS].[Dab].[Dab].[dF].L.[Dab].[Dab].T}$PEPTIDE1,PEPTIDE1,4:R3-10:R2$$$V2.0)
- deaths or severe TEAEs ([1]; MAD): No deaths or severe TEAEs occurred
- Abdominal pain: No. (%) of subjects ([1]; in vivo): 2 (8)
- Abdominal pain: No. of events ([1]; in vivo): 2
- All systemic TEAEs: No. (%) of subjects ([1]; in vivo): 24 (100)
- All systemic TEAEs: No. of events ([1]; in vivo): 178
- Arthralgia: No. (%) of subjects ([1]; in vivo): 2 (8)
- Arthralgia: No. of events ([1]; in vivo): 3
- Back pain: No. (%) of subjects ([1]; in vivo): 2 (8)
- Back pain: No. of events ([1]; in vivo): 2
- Chest discomfort: No. (%) of subjects ([1]; in vivo): 2 (8)
- Chest discomfort: No. of events ([1]; in vivo): 2
- Contusion: No. (%) of subjects ([1]; in vivo): 2 (8)
- Contusion: No. of events ([1]; in vivo): 2
- CrCl on day 16 ([1]; in vivo): 65 mL/min
- Creatinine clearance decrease: No. of events ([1]; in vivo): 6
- Dermatitis contact: No. of events ([1]; in vivo): 7
- Diarrhea: No. of events ([1]; in vivo): 3
- Dysesthesia: No. (%) of subjects ([1]; in vivo): 2 (8)
- Dysesthesia: No. of events ([1]; in vivo): 2
- Headache: No. of events ([1]; in vivo): 8
- Nausea: No. (%) of subjects ([1]; in vivo): 2 (8)
- Nausea: No. of events ([1]; in vivo): 2
- Rhinitis: No. (%) of subjects ([1]; in vivo): 2 (8)
- Rhinitis: No. of events ([1]; in vivo): 2
- catheter site erythema related to the PK cannula ([1]; in vivo): 13%
- catheter site pain related to the PK cannula ([1]; in vivo): 25%
- decline in CrCl ([1]; in vivo): 50%
- infusion site phlebitis, SPR741 subjects ([1]; in vivo): 3
- infusion site thrombosis, SPR741 subjects ([1]; in vivo): 2
- serious AE of atrial fibrillation, probably related to treatment, withdrawn ([1]; in vivo): One subject
- infusion site reactions (site bruising, erythema, pain, phlebitis, swelling), total number ([1]; in vivo, iv): 81
- TEAE classified as a renal or urinary disorder [2]: No subjects
- abnormal serum creatinine value [2]: no subject
- headache: No. (%) of subjects [2]: 4 (8%)
- severe TEAE or serious adverse event [2]: No subject
